Assay results reported in patent US20080051466A1, “Isoalpha acid based protein kinase modulation cancer treatment” (Metaproteomics, LLC, priority 2006, published 2008).

Assays:
Experiment in all cases: KinaseProfiler Assay
Format in all cases: biochemical
[1] = target: MSK1 (Homo sapiens, UniProt O75582); conditions: read-out: MSK1, % of Control
[2] = target: MAPKAP-K2 (Homo sapiens, UniProt P49137); conditions: read-out: MAPKAP-K2, % of Control
[3] = target: CDK6/cyclinD3 (Homo sapiens, UniProt Q00534); conditions: read-out: CDK6/cyclinD3, % of Control
[4] = target: Fgr (Homo sapiens, UniProt P09769); conditions: read-out: Fgr, % of Control
[5] = target: CDK3/cyclinE (Homo sapiens, UniProt Q00526); conditions: 50 ug/ml; read-out: CDK3/cyclinE, % of Control
[6] = target: IRAK1 (Homo sapiens, UniProt P51617); conditions: read-out: IRAK1, % of Control
[7] = target: MSSK1 (Homo sapiens, UniProt Q9UPE1); conditions: read-out: MSSK1, % of Control
[8] = target: Fer (Homo sapiens, UniProt P16591); conditions: read-out: Fer, % of Control
[9] = target: CDK9/cyclin T1 (Homo sapiens, UniProt P50750); conditions: read-out: CDK9/cyclin T1, % of Control
[10] = target: T1, EphB1 (Homo sapiens, UniProt P54762); conditions: read-out: EphB1, % of Control
T1 sequence (P54762 18-984): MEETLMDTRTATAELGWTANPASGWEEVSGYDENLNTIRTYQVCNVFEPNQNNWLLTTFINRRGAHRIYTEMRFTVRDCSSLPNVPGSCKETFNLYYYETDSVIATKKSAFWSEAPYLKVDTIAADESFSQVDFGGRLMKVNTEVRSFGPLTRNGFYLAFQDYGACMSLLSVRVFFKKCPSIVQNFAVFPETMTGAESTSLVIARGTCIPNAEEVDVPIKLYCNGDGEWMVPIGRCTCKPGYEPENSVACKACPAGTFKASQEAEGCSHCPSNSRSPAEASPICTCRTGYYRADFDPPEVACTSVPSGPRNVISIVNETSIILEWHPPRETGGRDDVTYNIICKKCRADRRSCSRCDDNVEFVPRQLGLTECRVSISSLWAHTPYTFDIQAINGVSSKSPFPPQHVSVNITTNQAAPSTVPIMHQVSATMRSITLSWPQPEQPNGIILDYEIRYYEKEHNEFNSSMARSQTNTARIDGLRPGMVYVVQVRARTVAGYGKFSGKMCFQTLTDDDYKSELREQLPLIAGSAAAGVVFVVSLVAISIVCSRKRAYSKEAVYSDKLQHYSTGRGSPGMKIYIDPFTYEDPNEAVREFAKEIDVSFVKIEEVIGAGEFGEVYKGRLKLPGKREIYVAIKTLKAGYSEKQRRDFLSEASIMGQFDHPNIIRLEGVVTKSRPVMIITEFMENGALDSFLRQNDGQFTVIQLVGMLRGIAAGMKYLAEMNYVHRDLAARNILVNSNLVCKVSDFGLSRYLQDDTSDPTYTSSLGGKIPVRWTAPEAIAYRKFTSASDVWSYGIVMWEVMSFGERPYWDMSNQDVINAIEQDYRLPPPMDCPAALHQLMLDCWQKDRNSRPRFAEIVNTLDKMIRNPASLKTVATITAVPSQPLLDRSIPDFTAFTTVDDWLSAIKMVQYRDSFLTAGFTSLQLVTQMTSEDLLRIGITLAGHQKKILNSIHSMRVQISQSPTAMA

[11] = target: HIPK3 (Homo sapiens, UniProt Q9H422); conditions: read-out: HIPK3, % of Control
[12] = target: CDK2/cyclinE (Homo sapiens, UniProt P24941); conditions: read-out: CDK2/cyclinE, % of Control

Chain of HIPK3 (Q9H422 whole entry): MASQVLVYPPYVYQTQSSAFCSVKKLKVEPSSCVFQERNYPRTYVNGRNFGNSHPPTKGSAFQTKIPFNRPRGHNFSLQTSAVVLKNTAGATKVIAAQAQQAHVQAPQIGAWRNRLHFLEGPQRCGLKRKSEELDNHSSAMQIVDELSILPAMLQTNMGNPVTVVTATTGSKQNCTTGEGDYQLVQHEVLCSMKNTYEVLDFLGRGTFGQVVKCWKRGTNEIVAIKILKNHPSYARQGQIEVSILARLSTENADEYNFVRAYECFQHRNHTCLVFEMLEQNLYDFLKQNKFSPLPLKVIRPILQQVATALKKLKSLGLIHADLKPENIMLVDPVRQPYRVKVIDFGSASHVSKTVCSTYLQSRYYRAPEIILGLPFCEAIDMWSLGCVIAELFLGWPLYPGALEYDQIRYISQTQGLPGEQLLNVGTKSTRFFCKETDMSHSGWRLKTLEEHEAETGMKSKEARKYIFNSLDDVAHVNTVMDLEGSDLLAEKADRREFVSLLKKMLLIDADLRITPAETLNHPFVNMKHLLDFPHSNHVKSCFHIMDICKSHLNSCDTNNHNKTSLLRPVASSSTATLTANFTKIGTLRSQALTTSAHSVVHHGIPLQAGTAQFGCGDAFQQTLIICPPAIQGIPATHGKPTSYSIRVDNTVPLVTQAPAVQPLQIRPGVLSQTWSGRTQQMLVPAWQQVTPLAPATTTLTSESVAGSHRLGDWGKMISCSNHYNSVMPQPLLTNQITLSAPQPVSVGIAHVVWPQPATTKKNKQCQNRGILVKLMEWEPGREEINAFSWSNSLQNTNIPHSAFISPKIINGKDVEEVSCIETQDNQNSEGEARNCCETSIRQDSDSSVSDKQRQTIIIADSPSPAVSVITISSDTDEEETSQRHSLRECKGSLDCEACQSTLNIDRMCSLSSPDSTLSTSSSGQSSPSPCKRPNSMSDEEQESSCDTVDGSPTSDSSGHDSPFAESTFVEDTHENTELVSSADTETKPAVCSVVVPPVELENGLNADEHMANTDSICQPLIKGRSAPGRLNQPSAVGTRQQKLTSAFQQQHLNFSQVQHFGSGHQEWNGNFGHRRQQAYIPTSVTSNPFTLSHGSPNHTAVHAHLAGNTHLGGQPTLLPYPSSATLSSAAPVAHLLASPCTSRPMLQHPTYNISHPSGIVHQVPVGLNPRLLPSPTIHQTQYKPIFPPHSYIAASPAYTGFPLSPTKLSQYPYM
Chain of IRAK1 (P51617 whole entry): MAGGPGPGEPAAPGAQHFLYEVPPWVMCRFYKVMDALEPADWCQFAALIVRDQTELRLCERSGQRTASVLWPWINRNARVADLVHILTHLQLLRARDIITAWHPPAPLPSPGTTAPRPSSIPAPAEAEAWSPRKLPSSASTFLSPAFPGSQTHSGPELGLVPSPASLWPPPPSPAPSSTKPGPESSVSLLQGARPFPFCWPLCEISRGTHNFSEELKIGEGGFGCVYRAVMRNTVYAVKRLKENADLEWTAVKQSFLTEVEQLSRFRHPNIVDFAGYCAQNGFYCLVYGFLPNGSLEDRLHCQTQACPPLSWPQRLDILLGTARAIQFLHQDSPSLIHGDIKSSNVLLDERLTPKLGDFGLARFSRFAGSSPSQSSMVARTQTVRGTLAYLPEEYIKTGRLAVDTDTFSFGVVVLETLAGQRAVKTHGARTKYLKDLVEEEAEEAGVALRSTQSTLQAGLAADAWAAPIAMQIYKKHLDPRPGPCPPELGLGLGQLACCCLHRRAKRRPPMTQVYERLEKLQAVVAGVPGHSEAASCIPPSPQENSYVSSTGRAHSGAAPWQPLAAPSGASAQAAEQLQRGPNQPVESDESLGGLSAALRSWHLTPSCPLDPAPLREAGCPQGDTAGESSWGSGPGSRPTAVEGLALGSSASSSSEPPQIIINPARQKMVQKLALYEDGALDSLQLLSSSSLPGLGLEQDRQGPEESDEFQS
Chain of MSSK1 (Q9UPE1 whole entry): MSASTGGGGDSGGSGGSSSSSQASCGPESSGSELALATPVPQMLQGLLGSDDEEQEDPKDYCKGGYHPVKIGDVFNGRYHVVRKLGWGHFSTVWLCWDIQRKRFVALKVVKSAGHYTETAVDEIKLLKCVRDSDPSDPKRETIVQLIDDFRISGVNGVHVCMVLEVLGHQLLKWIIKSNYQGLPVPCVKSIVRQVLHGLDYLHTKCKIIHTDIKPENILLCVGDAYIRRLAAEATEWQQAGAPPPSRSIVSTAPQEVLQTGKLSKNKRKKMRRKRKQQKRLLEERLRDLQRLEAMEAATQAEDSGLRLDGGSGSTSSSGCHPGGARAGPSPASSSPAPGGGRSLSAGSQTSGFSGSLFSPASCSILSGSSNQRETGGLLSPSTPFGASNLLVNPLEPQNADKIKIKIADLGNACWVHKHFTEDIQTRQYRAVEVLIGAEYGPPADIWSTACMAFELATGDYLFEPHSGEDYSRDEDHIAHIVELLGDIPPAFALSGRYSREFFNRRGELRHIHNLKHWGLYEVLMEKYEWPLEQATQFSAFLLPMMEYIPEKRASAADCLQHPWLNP
Chain of Fer (P16591 whole entry): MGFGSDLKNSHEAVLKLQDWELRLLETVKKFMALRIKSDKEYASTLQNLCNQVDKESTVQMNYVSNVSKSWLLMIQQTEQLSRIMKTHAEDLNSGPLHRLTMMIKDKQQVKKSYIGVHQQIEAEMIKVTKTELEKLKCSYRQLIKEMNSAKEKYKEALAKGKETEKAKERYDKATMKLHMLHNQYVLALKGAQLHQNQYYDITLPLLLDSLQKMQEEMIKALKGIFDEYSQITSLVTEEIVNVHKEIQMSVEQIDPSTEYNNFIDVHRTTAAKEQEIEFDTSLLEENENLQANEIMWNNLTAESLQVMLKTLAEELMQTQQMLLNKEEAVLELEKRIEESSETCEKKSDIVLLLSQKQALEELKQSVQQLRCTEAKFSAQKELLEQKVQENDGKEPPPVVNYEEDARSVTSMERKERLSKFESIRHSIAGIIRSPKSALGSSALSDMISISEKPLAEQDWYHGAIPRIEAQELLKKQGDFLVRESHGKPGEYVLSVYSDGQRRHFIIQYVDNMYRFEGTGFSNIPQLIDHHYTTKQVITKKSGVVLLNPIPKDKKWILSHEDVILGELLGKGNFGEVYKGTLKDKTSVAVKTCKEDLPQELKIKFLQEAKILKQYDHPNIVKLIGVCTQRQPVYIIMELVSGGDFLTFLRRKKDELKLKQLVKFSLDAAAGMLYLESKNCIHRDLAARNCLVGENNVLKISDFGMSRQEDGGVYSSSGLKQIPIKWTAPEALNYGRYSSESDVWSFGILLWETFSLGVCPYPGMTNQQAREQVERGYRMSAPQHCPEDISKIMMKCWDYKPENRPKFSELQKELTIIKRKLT
Chain of MSK1 (O75582 whole entry): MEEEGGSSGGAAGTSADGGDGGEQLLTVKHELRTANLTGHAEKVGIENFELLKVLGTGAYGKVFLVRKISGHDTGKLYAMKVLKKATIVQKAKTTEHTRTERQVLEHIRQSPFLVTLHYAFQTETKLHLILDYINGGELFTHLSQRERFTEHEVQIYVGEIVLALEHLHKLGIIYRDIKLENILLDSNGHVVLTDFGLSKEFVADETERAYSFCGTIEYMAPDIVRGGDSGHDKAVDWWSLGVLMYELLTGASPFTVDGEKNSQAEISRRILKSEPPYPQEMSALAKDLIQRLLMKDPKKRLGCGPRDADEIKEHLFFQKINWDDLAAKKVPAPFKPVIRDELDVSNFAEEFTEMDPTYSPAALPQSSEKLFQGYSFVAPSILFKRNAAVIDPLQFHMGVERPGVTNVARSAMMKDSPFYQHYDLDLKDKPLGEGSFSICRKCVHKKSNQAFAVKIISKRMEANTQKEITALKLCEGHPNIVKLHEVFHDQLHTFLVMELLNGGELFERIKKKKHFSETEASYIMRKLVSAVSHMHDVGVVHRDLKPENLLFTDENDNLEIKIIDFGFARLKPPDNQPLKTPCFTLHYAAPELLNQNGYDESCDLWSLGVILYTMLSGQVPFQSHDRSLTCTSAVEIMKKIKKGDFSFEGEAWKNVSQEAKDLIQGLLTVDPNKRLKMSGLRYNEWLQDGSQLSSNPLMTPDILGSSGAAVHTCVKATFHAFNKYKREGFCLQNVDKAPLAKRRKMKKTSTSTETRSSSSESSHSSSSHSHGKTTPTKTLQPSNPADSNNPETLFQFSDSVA
Chain of MAPKAP-K2 (P49137 whole entry): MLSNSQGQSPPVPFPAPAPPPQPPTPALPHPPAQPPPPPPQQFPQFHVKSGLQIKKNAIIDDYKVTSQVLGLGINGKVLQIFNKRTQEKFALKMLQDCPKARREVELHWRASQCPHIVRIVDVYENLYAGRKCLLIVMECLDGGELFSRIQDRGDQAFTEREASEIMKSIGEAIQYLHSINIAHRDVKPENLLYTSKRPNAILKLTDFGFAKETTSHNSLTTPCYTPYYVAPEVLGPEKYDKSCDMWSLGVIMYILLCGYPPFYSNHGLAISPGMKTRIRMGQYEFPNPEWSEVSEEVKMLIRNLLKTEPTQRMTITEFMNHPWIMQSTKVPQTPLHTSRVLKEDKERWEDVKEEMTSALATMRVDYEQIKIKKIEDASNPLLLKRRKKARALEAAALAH
Chain of Fgr (P09769 whole entry): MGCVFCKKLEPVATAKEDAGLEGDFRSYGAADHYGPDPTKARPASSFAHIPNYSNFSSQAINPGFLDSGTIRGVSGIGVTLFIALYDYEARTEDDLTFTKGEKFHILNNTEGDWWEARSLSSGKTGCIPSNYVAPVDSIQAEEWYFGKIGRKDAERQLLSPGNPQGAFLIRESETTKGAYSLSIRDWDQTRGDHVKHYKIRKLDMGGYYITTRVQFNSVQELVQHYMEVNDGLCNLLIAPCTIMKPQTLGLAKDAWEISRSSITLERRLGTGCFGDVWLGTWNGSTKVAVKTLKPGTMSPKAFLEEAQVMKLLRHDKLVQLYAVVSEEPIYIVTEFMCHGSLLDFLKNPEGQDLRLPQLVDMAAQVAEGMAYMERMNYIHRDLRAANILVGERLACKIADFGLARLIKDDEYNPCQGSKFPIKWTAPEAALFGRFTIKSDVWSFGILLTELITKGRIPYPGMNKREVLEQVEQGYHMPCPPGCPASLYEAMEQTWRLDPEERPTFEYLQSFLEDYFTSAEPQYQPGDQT

`COc1cc(O)c(CC=C(C)C)c(O)c1C(=O)/C=C/c1ccc(O)cc1` [Xanthohumol, xanthohumol] gave a remaining activity at 1 µg/mL ([1]; 1 ug/ml) of 114%, a remaining activity at 5 µg/mL ([1]; 5 ug/ml) of 92% and a remaining activity at 25 µg/mL ([1]; 25 ug/ml) of 31%. The remaining activity at 1 µg/mL ([2]; 1 ug/ml) was 99%, the remaining activity at 5 µg/mL ([2]; 5 ug/ml) was 95% and the remaining activity at 25 µg/mL ([2]; 25 ug/ml) was 6%. It also gave a remaining activity at 50 µg/mL ([2]; 50 ug/ml) of 8%, a remaining activity at 1 µg/mL ([3]; 1 ug/ml) of 110% and a remaining activity at 5 µg/mL ([3]; 5 ug/ml) of 79%. The remaining activity at 25 µg/mL ([3]; 25 ug/ml) was 23%, the remaining activity at 50 µg/mL ([3]; 50 ug/ml) was 7% and the remaining activity at 5 µg/mL ([4]; 5 ug/ml) was 36%. The remaining activity at 25 µg/mL ([4]; 25 ug/ml) was 10%, the remaining activity at 50 µg/mL [5] was 8% and the remaining activity at 1 µg/mL ([6]; 1 ug/ml) was 129%. The remaining activity at 5 µg/mL ([6]; 5 ug/ml) was 104%, the remaining activity at 50 µg/mL ([6]; 50 ug/ml) was 36% and the remaining activity at 1 µg/mL ([7]; 1 ug/ml) was 47%. The remaining activity at 5 µg/mL ([7]; 5 ug/ml) was 11%, the remaining activity at 25 µg/mL ([7]; 25 ug/ml) was 7% and the remaining activity at 50 µg/mL ([7]; 50 ug/ml) was 5%. It also gave a remaining activity at 1 µg/mL ([8]; 1 ug/ml) of 55%, a remaining activity at 5 µg/mL ([8]; 5 ug/ml) of 20% and a remaining activity at 25 µg/mL ([8]; 25 ug/ml) of 10%. The remaining activity at 50 µg/mL ([8]; 50 ug/ml) was 1%, the remaining activity at 1 µg/mL ([9]; 1 ug/ml) was 110% and the remaining activity at 5 µg/mL ([9]; 5 ug/ml) was 107%. The remaining activity at 25 µg/mL ([9]; 25 ug/ml) was 45%, the remaining activity at 50 µg/mL ([9]; 50 ug/ml) was 31% and the remaining activity at 1 µg/mL ([10]; 1 ug/ml) was 92%. It also gave a remaining activity at 25 µg/mL ([10]; 25 ug/ml) of 175%, a remaining activity at 50 µg/mL ([10]; 50 ug/ml) of 161% and a remaining activity at 1 µg/mL ([11]; 1 ug/ml) of 106%. The remaining activity at 5 µg/mL ([11]; 5 ug/ml) was 102%, the remaining activity at 50 µg/mL ([11]; 50 ug/ml) was 59% and the remaining activity at 1 µg/mL ([12]; 1 ug/ml) was 82%. The remaining activity at 5 µg/mL ([12]; 5 ug/ml) was 86% and the remaining activity at 25 µg/mL ([12]; 25 ug/ml) was 18%.
